Measurements as given in US10167262B2, “Herbicidal substituted 3-arylpyrazoles” (FMC CORPORATION, priority 2014, dated 2019).

Legend:
Assay in all cases: Test E pre-/postemergence greenhouse test, plant response rating 0-100
Assay type in all cases: in vivo
[1] = test system: Brazilian crabgrass (Digitaria horizontalis); settings: Digitaria horizontalis, post-emergence, Postemergence, scale 0 to 100, read-out: Plant response rating, Crabgrass, Brazil
Summary of the method: (§1)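 Pre- and postemergence sprays, vehicle non-phytotoxic solvent containing surfactant; postemergence plants 2–18 cm tall at the 1–4-leaf stage. Scored against controls after 14 to 21 days in a greenhouse, 0 being no effect and 100 complete control.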

[2] = test system: arrowleaf sida (Sida rhombifolia); settings: for Arrowleaf Sida plant response rating: Preemergence
Summary of the method: as §1

[3] = test system: barnyardgrass (Echinochloa crus-galli); settings: scale 0 to 100; for Barnyardgrass plant response rating: Preemergence
Summary of the method: as §1

corn (Zea mays) = settings: scale 0 to 100; for Corn plant response rating: Preemergence
Summary of the method: as §1

[4] = test system: dayflower (Virginia (VA) dayflower, Commelina virginica); settings: scale 0 to 100; for Dayflower, VA plant response rating: Preemergence
Summary of the method: as §1

[5] = test system: fall panicum (Panicum dichotomiflorum); settings: scale 0 to 100; for Panicum, Fall plant response rating: Preemergence
Summary of the method: as §1

[6] = test system: field bindweed (Convolvulus arvensis); settings: scale 0 to 100; for Field Bindweed plant response rating: Preemergence
Summary of the method: as §1

[7] = test system: hairy beggarticks (Bidens pilosa); settings: scale 0 to 100; for Beggarticks plant response rating: Preemergence
Summary of the method: as §1

[8] = test system: palmer pigweed (Amaranthus palmeri); settings: scale 0 to 100; for Pigweed, Palmer plant response rating: Preemergence
Summary of the method: as §1

[9] = test system: sandbur (southern sandbur, Cenchrus echinatus); settings: scale 0 to 100; for Sandbur plant response rating: Preemergence
Summary of the method: as §1

soybean (Glycine max) = settings: scale 0 to 100; for Soybean plant response rating: Preemergence
Summary of the method: as §1

[10] = test system: waterhemp (common waterhemp, Amaranthus rudis); settings: scale 0 to 100; for Waterhemp plant response rating: Preemergence
Summary of the method: as §1

O=C(c1ccccc1)c1cn(CO)nc1-c1cc(Cl)cc(Cl)c1 [Compound 15, [3-(3,5-dichlorophenyl)-1-(hydroxymethyl)-1H-pyrazol-4-yl]phenylmethanone]
pest or weed control at 31 g/ha ([1]; 31 g ai/ha): 0% | pest or weed control at 62 g/ha ([1]; 62 g ai/ha): 0% | pest or weed control at 125 g/ha ([1]; 125 g ai/ha): 0% | pest or weed control at 250 g/ha ([1]; 250 g ai/ha): 0% | pest or weed control at 500 g/ha ([1]; 500 g ai/ha): 0% | Arrowleaf Sida plant response rating ([2]; 31 g ai/ha, scale 0 to 100): 25 | Arrowleaf Sida plant response rating ([2]; 62 g ai/ha, scale 0 to 100): 30 | Arrowleaf Sida plant response rating ([2]; 125 g ai/ha, scale 0 to 100): 90 | Arrowleaf Sida plant response rating ([2]; 250 g ai/ha, scale 0 to 100): 100 | Arrowleaf Sida plant response rating ([2]; 500 g ai/ha, scale 0 to 100): 98 | pest or weed control at 31 g/ha ([2]; Sida rhombifolia, post-emergence, Postemergence, 31 g ai/ha, scale 0 to 100): 98% | pest or weed control at 62 g/ha ([2]; Sida rhombifolia, post-emergence, Postemergence, 62 g ai/ha, scale 0 to 100): 90% | pest or weed control at 125 g/ha ([2]; Sida rhombifolia, post-emergence, Postemergence, 125 g ai/ha, scale 0 to 100): 98% | pest or weed control at 250 g/ha ([2]; Sida rhombifolia, post-emergence, Postemergence, 250 g ai/ha, scale 0 to 100): 98% | pest or weed control at 500 g/ha ([2]; Sida rhombifolia, post-emergence, Postemergence, 500 g ai/ha, scale 0 to 100 (0 no effect, 100 complete control)): 98% | pest or weed control at 31 g/ha ([3]; Echinochloa crus-galli, post-emergence, Postemergence, 31 g ai/ha): 0% | pest or weed control at 62 g/ha ([3]; Echinochloa crus-galli, post-emergence, Postemergence, 62 g ai/ha): 0% | pest or weed control at 125 g/ha ([3]; Echinochloa crus-galli, post-emergence, Postemergence, 125 g ai/ha): 0% | pest or weed control at 250 g/ha ([3]; Echinochloa crus-galli, post-emergence, Postemergence, 250 g ai/ha): 0% | pest or weed control at 500 g/ha ([3]; Echinochloa crus-galli, post-emergence, Postemergence, 500 g ai/ha): 0% | Barnyardgrass plant response rating ([3]; 31 g ai/ha): 0 | Barnyardgrass plant response rating ([3]; 62 g ai/ha): 0 | Barnyardgrass plant response rating ([3]; 125 g ai/ha): 0 | Barnyardgrass plant response rating ([3]; 250 g ai/ha): 0 | Barnyardgrass plant response rating ([3]; 500 g ai/ha): 0 | Corn plant response rating (corn (Zea mays); 31 g ai/ha): 0 | Corn plant response rating (corn (Zea mays); 62 g ai/ha): 0 | Corn plant response rating (corn (Zea mays); 125 g ai/ha): 0 | Corn plant response rating (corn (Zea mays); 250 g ai/ha): 0 | Corn plant response rating (corn (Zea mays); 500 g ai/ha): 0 | Corn plant response rating (crop injury, 0 = no effect, 100 = complete kill) at 31 g/ha (corn (Zea mays); Zea mays, post-emergence, Postemergence, 31 g ai/ha): 0% | Corn plant response rating (crop injury, 0 = no effect, 100 = complete kill) at 62 g/ha (corn (Zea mays); Zea mays, post-emergence, Postemergence, 62 g ai/ha): 0% | Corn plant response rating (crop injury, 0 = no effect, 100 = complete kill) at 125 g/ha (corn (Zea mays); Zea mays, post-emergence, Postemergence, 125 g ai/ha): 0% | Corn plant response rating (crop injury, 0 = no effect, 100 = complete kill) at 250 g/ha (corn (Zea mays); Zea mays, post-emergence, Postemergence, 250 g ai/ha): 0% | Corn plant response rating (crop injury, 0 = no effect, 100 = complete kill) at 500 g/ha (corn (Zea mays); Zea mays, post-emergence, Postemergence, 500 g ai/ha): 0% | pest or weed control at 31 g/ha ([4]; Commelina virginica, post-emergence, Postemergence, 31 g ai/ha): 0% | pest or weed control at 62 g/ha ([4]; Commelina virginica, post-emergence, Postemergence, 62 g ai/ha): 0% | pest or weed control at 125 g/ha ([4]; Commelina virginica, post-emergence, Postemergence, 125 g ai/ha): 0% | pest or weed control at 250 g/ha ([4]; Commelina virginica, post-emergence, Postemergence, 250 g ai/ha): 0% | pest or weed control at 500 g/ha ([4]; Commelina virginica, post-emergence, Postemergence, 500 g ai/ha): 0% | Dayflower, VA plant response rating ([4]; 31 g ai/ha): 0 | Dayflower, VA plant response rating ([4]; 62 g ai/ha): 0 | Dayflower, VA plant response rating ([4]; 125 g ai/ha): 0 | Dayflower, VA plant response rating ([4]; 500 g ai/ha): 0 | pest or weed control at 31 g/ha ([5]; Panicum dichotomiflorum, post-emergence, Postemergence, 31 g ai/ha): 0% | pest or weed control at 62 g/ha ([5]; Panicum dichotomiflorum, post-emergence, Postemergence, 62 g ai/ha): 0% | pest or weed control at 125 g/ha ([5]; Panicum dichotomiflorum, post-emergence, Postemergence, 125 g ai/ha): 0% | pest or weed control at 250 g/ha ([5]; Panicum dichotomiflorum, post-emergence, Postemergence, 250 g ai/ha): 0% | pest or weed control at 500 g/ha ([5]; Panicum dichotomiflorum, post-emergence, Postemergence, 500 g ai/ha): 35% | Panicum, Fall plant response rating ([5]; 31 g ai/ha): 0 | Panicum, Fall plant response rating ([5]; 62 g ai/ha): 0 | Panicum, Fall plant response rating ([5]; 125 g ai/ha): 0 | Panicum, Fall plant response rating ([5]; 250 g ai/ha): 0 | Panicum, Fall plant response rating ([5]; 500 g ai/ha): 0 | pest or weed control at 31 g/ha ([6]; Convolvulus arvensis, post-emergence, Postemergence, 31 g ai/ha): 0% | pest or weed control at 62 g/ha ([6]; Convolvulus arvensis, post-emergence, Postemergence, 62 g ai/ha): 0% | pest or weed control at 125 g/ha ([6]; Convolvulus arvensis, post-emergence, Postemergence, 125 g ai/ha): 0% | pest or weed control at 250 g/ha ([6]; Convolvulus arvensis, post-emergence, Postemergence, 250 g ai/ha): 0% | pest or weed control at 500 g/ha ([6]; Convolvulus arvensis, post-emergence, Postemergence, 500 g ai/ha): 0% | Field Bindweed plant response rating ([6]; 31 g ai/ha): 0 | Field Bindweed plant response rating ([6]; 62 g ai/ha): 0 | Field Bindweed plant response rating ([6]; 125 g ai/ha): 0 | Field Bindweed plant response rating ([6]; 250 g ai/ha): 0 | Field Bindweed plant response rating ([6]; 500 g ai/ha): 0 | pest or weed control at 31 g/ha ([7]; Bidens pilosa, post-emergence, Postemergence, 31 g ai/ha): 90% | pest or weed control at 62 g/ha ([7]; Bidens pilosa, post-emergence, Postemergence, 62 g ai/ha): 98% | pest or weed control at 125 g/ha ([7]; Bidens pilosa, post-emergence, Postemergence, 125 g ai/ha): 98% | pest or weed control at 250 g/ha ([7]; Bidens pilosa, post-emergence, Postemergence, 250 g ai/ha): 100% | pest or weed control at 500 g/ha ([7]; Bidens pilosa, post-emergence, Postemergence, 500 g ai/ha): 98% | Beggarticks plant response rating ([7]; 31 g ai/ha): 0 | Beggarticks plant response rating ([7]; 62 g ai/ha): 0 | Beggarticks plant response rating ([7]; 125 g ai/ha): 0 | Beggarticks plant response rating ([7]; 250 g ai/ha): 25 | Beggarticks plant response rating ([7]; 500 g ai/ha): 80 | pest or weed control at 31 g/ha ([8]; Amaranthus palmeri, post-emergence, Postemergence, 31 g ai/ha): 35% | pest or weed control at 62 g/ha ([8]; Amaranthus palmeri, post-emergence, Postemergence, 62 g ai/ha): 75% | pest or weed control at 125 g/ha ([8]; Amaranthus palmeri, post-emergence, Postemergence, 125 g ai/ha): 75% | pest or weed control at 250 g/ha ([8]; Amaranthus palmeri, post-emergence, Postemergence, 250 g ai/ha): 98% | pest or weed control at 500 g/ha ([8]; Amaranthus palmeri, post-emergence, Postemergence, 500 g ai/ha): 100% | Pigweed, Palmer plant response rating ([8]; 31 g ai/ha): 0 | Pigweed, Palmer plant response rating ([8]; 62 g ai/ha): 0 | Pigweed, Palmer plant response rating ([8]; 125 g ai/ha): 0 | Pigweed, Palmer plant response rating ([8]; 250 g ai/ha): 65 | Pigweed, Palmer plant response rating ([8]; 500 g ai/ha): 100 | pest or weed control at 31 g/ha ([9]; Cenchrus echinatus, post-emergence, Postemergence, 31 g ai/ha): 0% | pest or weed control at 62 g/ha ([9]; Cenchrus echinatus, post-emergence, Postemergence, 62 g ai/ha): 0% | pest or weed control at 125 g/ha ([9]; Cenchrus echinatus, post-emergence, Postemergence, 125 g ai/ha): 0% | pest or weed control at 250 g/ha ([9]; Cenchrus echinatus, post-emergence, Postemergence, 250 g ai/ha): 0% | pest or weed control at 500 g/ha ([9]; Cenchrus echinatus, post-emergence, Postemergence, 500 g ai/ha): 0% | Sandbur plant response rating ([9]; 31 g ai/ha): 0 | Sandbur plant response rating ([9]; 62 g ai/ha): 30 | Sandbur plant response rating ([9]; 125 g ai/ha): 50 | Sandbur plant response rating ([9]; 250 g ai/ha): 40 | Sandbur plant response rating ([9]; 500 g ai/ha): 35 | plant injury at 31 g/ha (soybean (Glycine max); Glycine max, post-emergence, Postemergence, 31 g ai/ha): 0% | plant injury at 62 g/ha (soybean (Glycine max); Glycine max, post-emergence, Postemergence, 62 g ai/ha): 0% | plant injury at 125 g/ha (soybean (Glycine max); Glycine max, post-emergence, Postemergence, 125 g ai/ha): 0% | plant injury at 250 g/ha (soybean (Glycine max); Glycine max, post-emergence, Postemergence, 250 g ai/ha): 0% | plant injury at 500 g/ha (soybean (Glycine max); Glycine max, post-emergence, Postemergence, 500 g ai/ha): 0% | Soybean plant response rating (soybean (Glycine max); 31 g ai/ha): 0 | Soybean plant response rating (soybean (Glycine max); 62 g ai/ha): 0 | Soybean plant response rating (soybean (Glycine max); 125 g ai/ha): 0 | Soybean plant response rating (soybean (Glycine max); 250 g ai/ha): 0 | Soybean plant response rating (soybean (Glycine max); 500 g ai/ha): 0 | pest or weed control at 31 g/ha ([10]; Amaranthus tuberculatus, post-emergence, Postemergence, 31 g ai/ha): 80% | pest or weed control at 62 g/ha ([10]; Amaranthus tuberculatus, post-emergence, Postemergence, 62 g ai/ha): 98% | pest or weed control at 125 g/ha ([10]; Amaranthus tuberculatus, post-emergence, Postemergence, 125 g ai/ha): 95% | pest or weed control at 250 g/ha ([10]; Amaranthus tuberculatus, post-emergence, Postemergence, 250 g ai/ha): 100% | pest or weed control at 500 g/ha ([10]; Amaranthus tuberculatus, post-emergence, Postemergence, 500 g ai/ha): 100% | Waterhemp plant response rating ([10]; 31 g ai/ha): 0 | Waterhemp plant response rating ([10]; 62 g ai/ha): 70 | Waterhemp plant response rating ([10]; 125 g ai/ha): 90 | Waterhemp plant response rating ([10]; 250 g ai/ha): 75 | Waterhemp plant response rating ([10]; 500 g ai/ha): 100
